A short description of series [1]: physchem. The settings on record: pH 7.
Series [2] can be described thus: Photostability, thin-film irradiation in Atlas Suntest xenon lamp. The series is classed as physicochemical. Particulars: thin film on glass, Suntest 750 W/m2; time for first 50% loss. The protocol: Photostability tests were carried out by irradiation of thin-film deposits of compounds and formulations on glass surfaces, using a filtered xenon lamp system (Atlas Suntest) which reproduces the spectrum and intensity of sunlight. The spectral output power of the Suntest was set to 750 W/m2, which is the typical daily maximum irradiance level at noon (UK, midsummer).
Test compounds were typically dissolved in HPLC grade methanol to give 1 g/L stock solutions. Alternatively, formulated compounds were suspended in water at the same concentration. 2 μL droplets of test solutions were spotted onto microscope cover slips in a 3D printed holder, allowed to dry then irradiated in the Suntest for varying times. Cover slips were then removed from the Suntest and placed in 4 dram vials; 1 mL of wash solvent (typically 30:70 acetonitrile: 0.2% aqueous formic acid) was added, and the vials shaken to extract compounds into solution. Solutions were analysed by reverse phase HPLC, typically using a Waters UPLC system with Photodiode Array (PDA) and Waters columns (BEH C18, 100×2.1 mm×1.7 μm) using mixed aqueous:acetonitrile mobile phase, acidifed with 0.2% formic acid. Peak detection was at the optimum wavelength for each candidate compound and PDA peak areas were used for quantification. Plots of % loss versus time were used to estimate T50 values, being the time taken for first 50% loss of test compound.

The conditions of series [3]: pH 7.2.
Series [4] in a line: Solubility in aqueous buffer (10 mM mixed phosphate, pH 7.20).
The nature of series [5]: Solubility in heptane.
The nature of series [6]: Octanol-water partition coefficient (Log P) by HPLC on octanol-coated mini-columns. Particulars: pH 7.
Series [7] relates to Fusarium culmorum. The series is classed as in vivo. Particulars: 200 ppm; wheat spikelet preventative; compared to untreated control.
Series [8] relates to Pyrenophora teres. In words: Example B15 Pyrenophora teres/barley/leaf disc preventative (net blotch). The settings on record: foliar, barley leaf disc preventative, compared to untreated control. The series is classed as in vivo.
Series [9] deals with Magnaporthe grisea (Pyricularia oryzae). The series can be described thus: whole plant or invertebrate. The series is classed as in vivo. Particulars: foliar, read-out: control of Magnaporthe grisea.
Series [10] relates to Gibberella zeae (Fusarium graminearum). The series is classed as in vivo. Particulars: 200 ppm; wheat spikelet preventative; compared to untreated control.

SMILES strings stand for the structures. Read-outs that look alike come from different tables or passages of the source.

Take `CCOC(=O)C(=O)N(c1cc(F)nc(F)c1)c1nc(C(=O)NC2CCC2(C)C)c(C)s1` (stereo not shown) [I.b.612, ethyl 2-[(2,6-difluoro-4-pyridyl)-[4-[(2,2-dimethylcyclobutyl)carbamoyl]-5-methyl-thiazol-2-yl]amino]-2-oxo-acetate]: the chromatographic logP in series [1] is 4.34. Besides, the “Photostability T50” value in [2] is on record as 5.5 h.

The compound `Cc1sc(N(C=O)c2cc(F)nc(F)c2)nc1C(=O)NC1CCC1(C)C` (stereo not shown) [I.b.595, 2-[(2,6-difluoro-4-pyridyl)-formyl-amino]-N-(2,2-dimethylcyclobutyl)-5-methyl-thiazole-4-carboxamide] came in with a chromatographic logP in series [1] of 3.61. In series [3], this compound showed a Solubility in water of 2.5 ppm. The “Photostability T50” value in series [2] is given as 2.8 h.

Regarding `Cc1sc(N(C(=O)Oc2ccccc2)c2cc(F)nc(F)c2)nc1C(=O)NC1CCC1(C)C` (stereo not shown) [I.b.616, phenyl N-(2,6-difluoro-4-pyridyl)-N-[4-[(2,2-dimethylcyclobutyl)carbamoyl]-5-methyl-thiazol-2-yl]carbamate], the Solubility in water in series [4] was 0.10 ppm. For the same compound, the “Photostability T50” value in series [2] worked out at 18 h. This compound came in with a Solubility in heptane in [5] of 673 ppm. In [6], the chromatographic logP turned out to be 5.34.

Take `COCC(=O)N(c1cc(F)nc(F)c1)c1nc(C(=O)NC2CCC2(C)C)c(C)s1` (stereo not shown) [I.b.600, 2-[(2,6-difluoro-4-pyridyl)-(2-methoxyacetyl)amino]-N-(2,2-dimethylcyclobutyl)-5-methyl-thiazole-4-carboxamide]: in series [1], the chromatographic logP worked out at 3.35. Also, the “control of Fusarium culmorum” value in series [7] is “at least 80%”. The compound further had a Solubility in water in series [3] of 18 ppm. Moreover, the “Photostability T50” value in [2] was determined as 2.8 h.

As to `COCC(=O)N(c1cc(F)nc(F)c1)c1nc(C(=O)NC2CCC23CCCC3)c(C)s1` (stereo not shown) [I.c.600, 2-[(2,6-difluoro-4-pyridyl)-(2-methoxyacetyl)amino]-5-methyl-N-spiro[3.4]octan-3-yl-thiazole-4-carboxamide], the pest or weed control at 200 ppm in [8] and in series [9] was at least 80% each time.

With `COC(=O)CC(=O)N(c1cc(F)nc(F)c1)c1nc(C(=O)NC2CCC2(C)C)c(C)s1` (stereo not shown) [I.b.607, methyl 3-[(2,6-difluoro-4-pyridyl)-[4-[(2,2-dimethylcyclobutyl)carbamoyl]-5-methyl-thiazol-2-yl]amino]-3-oxo-propanoate], the chromatographic logP in series [1] worked out at 3.59. In addition, in [3], the Solubility in water is given as 12 ppm. Moreover, in series [10], the “control of Gibberella zeae” value is recorded as “at least 80%”. For the same compound, in [2], the “Photostability T50” value worked out at 4.4 h.

Regarding `CC(=O)N(c1cc(F)nc(F)c1)c1nc(C(=O)NC2CCC2(C)C)c(C)s1` (stereo not shown) [I.b.596, 2-[acetyl-(2,6-difluoro-4-pyridyl)amino]-N-(2,2-dimethylcyclobutyl)-5-methyl-thiazole-4-carboxamide], the chromatographic logP in [1] is 3.8. The Solubility in water in series [3] came to 3.7 ppm. The “Photostability T50” value in series [2] was 5.5 h.

As for `Cc1sc(Nc2cc(F)nc(F)c2)nc1C(=O)NC1CCC1(C)C` (stereo not shown) [Compound E-0, 2-[(2,6-difluoro-4-pyridyl)amino]-N-(2,2-dimethylcyclobutyl)-5-methyl-thiazole-4-carboxamide, reference compound], the Solubility in water in series [3] is 0.70 ppm. Moreover, the “Photostability T50” value in series [2] amounted to 3.5 h.

`CCOC(=O)N(c1cc(F)nc(F)c1)c1nc(C(=O)NC2CCC2(C)C)c(C)s1` (stereo not shown) [I.b.599, ethyl N-(2,6-difluoro-4-pyridyl)-N-[4-[(2,2-dimethylcyclobutyl)carbamoyl]-5-methyl-thiazol-2-yl]carbamate]: in series [1], the chromatographic logP was found to be 4.58. Also, in series [3], the Solubility in water was determined as 1.0 ppm. Further, the “Photostability T50” value in [2] is reported as 11 h.

`Cc1sc(N(C(=O)c2ccco2)c2cc(F)nc(F)c2)nc1C(=O)NC1CCC1(C)C` (stereo not shown) [I.b.614, 2-[(2,6-difluoro-4-pyridyl)-(furan-2-carbonyl)amino]-N-(2,2-dimethylcyclobutyl)-5-methyl-thiazole-4-carboxamide]: the chromatographic logP in [1] was determined as 4.61. The compound also showed a Solubility in water in series [3] of 0.054 ppm. For the same compound, in series [2], the “Photostability T50” value amounted to 14 h.

`COC(=O)N(c1cc(F)nc(F)c1)c1nc(C(=O)NC2CCC2(C)C)c(C)s1` (stereo not shown) [I.b.598, methyl N-(2,6-difluoro-4-pyridyl)-N-[4-[(2,2-dimethylcyclobutyl)carbamoyl]-5-methyl-thiazol-2-yl]carbamate] registered a Solubility in water in [4] of 1.4 ppm. The “Photostability T50” value in [2] was 6.2 h. In addition, the Solubility in heptane in [5] was 1155 ppm. For the same compound, in series [6], the chromatographic logP worked out at 4.21.

What is called chromatographic logP is lipophilicity estimated from chromatographic retention.

The values are drawn from patent publication US12696899B2, “Microbiocidal 2-acylamino-thiazole-4-carboxamide derivatives” (SYNGENTA CROP PROTECTION AG, priority 2018, dated 2026).
